Data: PubChem BioAssay AID2060899 (Molecular Pharmacology Branch, DTP, NCI, 2025)

Test system: 565726-208-R1-J5-PDC complex spheroids, growth inhibition
Assay: Anticancer human tumor 565726-208-R1-J5-PDC patient-derived pancreatic adenocarcinoma cell line growth inhibition [RAS]
Settings: for viability, T/C: stronger effect = lower value
Procedure, shortened: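 Multi-cell-type spheroids: tumor cells plus HUVEC endothelial cells and mesenchymal stem cells. RAS-pathway inhibitors were combined with targeted agents, each dosed in half-log steps down from clinical Cmax, or from 10 microM when Cmax was unknown.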
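Further: spheroids exposed to compounds for seven days before readout.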
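Wherever viability, T/C is given: 100% = DMSO vehicle control viability.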

For `CC(C)NCC(C(=O)N1CCN(c2ncnc3c2C(C)CC3O)CC1)c1ccc(Cl)cc1` (stereo not drawn) + C=CC(=O)N1CCN(c2nc(OCC3CCCN3C)nc3c(F)c(-c4nc(N)cc(C)c4C(F)(F)F)c(Cl)cc23)C(C)C1, the IC50 (curve of first compound, second compound 0.00316 µM) was greater than 10000 nM, the IC50 (curve of first compound, second compound 0.01 µM) was greater than 10000 nM and the IC50 (curve of first compound, second compound 0.0316 µM) was greater than 10000 nM. It also gave an IC50 (curve of first compound, second compound 0.1 µM) greater than 10000 nM, an IC50 (curve of first compound, second compound 0.316 µM) greater than 10000 nM and an IC50 (curve of first compound, second compound 1 µM) greater than 10000 nM. The viability, T/C (second compound 0.00316 µM, first compound 0.0316 µM) was 90.5%, the viability, T/C (second compound 0.00316 µM, first compound 0.1 µM) was 152% and the viability, T/C (second compound 0.00316 µM, first compound 0.316 µM) was 89%. For the same compound, the viability, T/C (second compound 0.00316 µM, first compound 1 µM) was 91%, the viability, T/C (second compound 0.00316 µM, first compound 3.16 µM) was 93.3% and the viability, T/C (second compound 0.00316 µM, first compound 10 µM) was 110%. For the same compound, the viability, T/C (second compound 0.01 µM, first compound 0.0316 µM) was 133%, the viability, T/C (second compound 0.01 µM, first compound 0.1 µM) was 153% and the viability, T/C (second compound 0.01 µM, first compound 0.316 µM) was 91%. For the same compound, the viability, T/C (second compound 0.01 µM, first compound 1 µM) was 78.3%, the viability, T/C (second compound 0.01 µM, first compound 3.16 µM) was 104% and the viability, T/C (second compound 0.01 µM, first compound 10 µM) was 127%. It also gave a viability, T/C (second compound 0.0316 µM, first compound 0.0316 µM) of 125%, a viability, T/C (second compound 0.0316 µM, first compound 0.1 µM) of 160% and a viability, T/C (second compound 0.0316 µM, first compound 0.316 µM) of 90.2%. For the same compound, the viability, T/C (second compound 0.0316 µM, first compound 1 µM) was 89.8%, the viability, T/C (second compound 0.0316 µM, first compound 3.16 µM) was 93.5% and the viability, T/C (second compound 0.0316 µM, first compound 10 µM) was 125%. The viability, T/C (second compound 0.1 µM, first compound 0.0316 µM) was 176%, the viability, T/C (second compound 0.1 µM, first compound 0.1 µM) was 154% and the viability, T/C (second compound 0.1 µM, first compound 0.316 µM) was 93.1%. It also gave a viability, T/C (second compound 0.1 µM, first compound 1 µM) of 85.4%, a viability, T/C (second compound 0.1 µM, first compound 3.16 µM) of 80.6% and a viability, T/C (second compound 0.1 µM, first compound 10 µM) of 120%. The viability, T/C (second compound 0.316 µM, first compound 0.0316 µM) was 147%, the viability, T/C (second compound 0.316 µM, first compound 0.1 µM) was 153% and the viability, T/C (second compound 0.316 µM, first compound 0.316 µM) was 88.5%. It also gave a viability, T/C (second compound 0.316 µM, first compound 1 µM) of 96.6%, a viability, T/C (second compound 0.316 µM, first compound 3.16 µM) of 73.4% and a viability, T/C (second compound 0.316 µM, first compound 10 µM) of 118%. The viability, T/C (second compound 1 µM, first compound 0.0316 µM) was 175%, the viability, T/C (second compound 1 µM, first compound 0.1 µM) was 155% and the viability, T/C (second compound 1 µM, first compound 0.316 µM) was 130%. It also gave a viability, T/C (second compound 1 µM, first compound 1 µM) of 95.1%, a viability, T/C (second compound 1 µM, first compound 3.16 µM) of 80.7% and a viability, T/C (second compound 1 µM, first compound 10 µM) of 95.9%.

`CC(C)n1nc(-c2ccc3oc(N)nc3c2)c2c(N)ncnc21` + CCn1c(-c2cc(N3CCN(C)CC3)cnc2C(C)OC)c2c3cc(ccc31)-c1csc(n1)CC(NC(=O)C1CC1C)C(=O)N1CCCC(N1)C(=O)OCC(C)(C)C2 gave an IC50 (curve of first compound, second compound 0.000949 µM) of 1.9 nM, an IC50 (curve of first compound, second compound 0.003 µM) of less than 0.316 nM and an IC50 (curve of first compound, second compound 0.00949 µM) of less than 0.316 nM. It also gave an IC50 (curve of first compound, second compound 0.03 µM) of less than 0.316 nM, an IC50 (curve of first compound, second compound 0.0949 µM) of less than 0.316 nM and an IC50 (curve of first compound, second compound 0.3 µM) of less than 0.316 nM. For the same compound, the viability, T/C (second compound 0.000949 µM, first compound 0.000316 µM) was 65.3%, the viability, T/C (second compound 0.000949 µM, first compound 0.001 µM) was 48.7% and the viability, T/C (second compound 0.000949 µM, first compound 0.00316 µM) was 51.4%. It also gave a viability, T/C (second compound 0.000949 µM, first compound 0.01 µM) of 36.5%, a viability, T/C (second compound 0.000949 µM, first compound 0.0316 µM) of 23.8% and a viability, T/C (second compound 0.000949 µM, first compound 0.1 µM) of 17.7%. The viability, T/C (second compound 0.003 µM, first compound 0.000316 µM) was 48.6%, the viability, T/C (second compound 0.003 µM, first compound 0.001 µM) was 45.6% and the viability, T/C (second compound 0.003 µM, first compound 0.00316 µM) was 38.6%. It also gave a viability, T/C (second compound 0.003 µM, first compound 0.01 µM) of 28.4%, a viability, T/C (second compound 0.003 µM, first compound 0.0316 µM) of 20.7% and a viability, T/C (second compound 0.003 µM, first compound 0.1 µM) of 14.1%. The viability, T/C (second compound 0.00949 µM, first compound 0.000316 µM) was 40.4%, the viability, T/C (second compound 0.00949 µM, first compound 0.001 µM) was 35.5% and the viability, T/C (second compound 0.00949 µM, first compound 0.00316 µM) was 30.6%. The viability, T/C (second compound 0.00949 µM, first compound 0.01 µM) was 22.7%, the viability, T/C (second compound 0.00949 µM, first compound 0.0316 µM) was 15.7% and the viability, T/C (second compound 0.00949 µM, first compound 0.1 µM) was 10.6%. It also gave a viability, T/C (second compound 0.03 µM, first compound 0.000316 µM) of 30%, a viability, T/C (second compound 0.03 µM, first compound 0.001 µM) of 31.1% and a viability, T/C (second compound 0.03 µM, first compound 0.00316 µM) of 26%. It also gave a viability, T/C (second compound 0.03 µM, first compound 0.01 µM) of 17.5%, a viability, T/C (second compound 0.03 µM, first compound 0.0316 µM) of 13.2% and a viability, T/C (second compound 0.03 µM, first compound 0.1 µM) of 8.25%. It also gave a viability, T/C (second compound 0.0949 µM, first compound 0.000316 µM) of 26.7%, a viability, T/C (second compound 0.0949 µM, first compound 0.001 µM) of 25.9% and a viability, T/C (second compound 0.0949 µM, first compound 0.00316 µM) of 20.3%. For the same compound, the viability, T/C (second compound 0.0949 µM, first compound 0.01 µM) was 14.6%, the viability, T/C (second compound 0.0949 µM, first compound 0.0316 µM) was 10.4% and the viability, T/C (second compound 0.0949 µM, first compound 0.1 µM) was 6.63%. It also gave a viability, T/C (second compound 0.3 µM, first compound 0.000316 µM) of 22.7%, a viability, T/C (second compound 0.3 µM, first compound 0.001 µM) of 21.3% and a viability, T/C (second compound 0.3 µM, first compound 0.00316 µM) of 18.9%. For the same compound, the viability, T/C (second compound 0.3 µM, first compound 0.01 µM) was 15.1%, the viability, T/C (second compound 0.3 µM, first compound 0.0316 µM) was 11.1% and the viability, T/C (second compound 0.3 µM, first compound 0.1 µM) was 6.78%.

`CCN1CCN(Cc2ccc(Nc3ncc(F)c(-c4cc(F)c5nc(C)n(C(C)C)c5c4)n3)nc2)CC1` was tested, and the viability, T/C (compound 0.00316 µM) was 96.8% [middle of 4 runs], the viability, T/C (compound 0.0316 µM) was 81.5% [middle of 4 runs] and the viability, T/C (compound 0.1 µM) was 77.8% [middle of 4 runs]. The IC50 (curve of compound) was greater than 1000 nM.
